Experimental data from publication PMC7921063, “The Effects of Genetic Mutations and Drugs on the Activity of the Thiamine Transporter, SLC19A2” (The AAPS Journal, 2021).
Read-outs that look alike come from different tables or passages of the source.

Biological target: T1, SLC19A2 (Homo sapiens, UniProt O60779)
T1 sequence (O60779 1-497): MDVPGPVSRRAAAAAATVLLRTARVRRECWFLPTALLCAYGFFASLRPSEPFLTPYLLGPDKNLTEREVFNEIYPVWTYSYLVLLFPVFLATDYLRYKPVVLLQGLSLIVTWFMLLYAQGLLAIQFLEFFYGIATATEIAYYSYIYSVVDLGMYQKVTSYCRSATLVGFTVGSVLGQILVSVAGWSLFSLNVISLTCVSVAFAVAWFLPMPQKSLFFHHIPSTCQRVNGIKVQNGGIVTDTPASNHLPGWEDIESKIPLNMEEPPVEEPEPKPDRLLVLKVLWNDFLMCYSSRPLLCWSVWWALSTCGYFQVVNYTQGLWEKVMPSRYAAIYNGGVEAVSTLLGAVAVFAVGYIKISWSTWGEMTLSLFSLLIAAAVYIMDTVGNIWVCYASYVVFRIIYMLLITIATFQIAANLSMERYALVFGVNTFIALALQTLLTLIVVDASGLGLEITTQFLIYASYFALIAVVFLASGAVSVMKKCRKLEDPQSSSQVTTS
Test: SLC19A2 inhibitor screen: [3H]-thiamine uptake in SLC19A2-overexpressing HEK293 cells
Assay type: cell-based
Set-up: host or cells: HEK293, stably overexpressing SLC19A2 and transiently transfected with a further 500 ng wild-type plasmid
Conditions: for remaining activity at 1000 µM / inhibition at 1000 µM: HEK293, 10 min; for remaining activity at 1000 µM: read-out: Average % SLC19A2 thiamine uptake; for inhibition at 1000 µM: at 1 mM, read-out: reduction in thiamine transport (designated SLC19A2 inhibitor)
Method: Plasmids encoding wild-type SLC19A2 and three TRMA-associated variants were generated by Genscript Inc. (Piscataway, USA). Methods for generation of stably overexpressing SLC19A2 cell lines and uptake studies have been previously described ([11], [12]). Inhibition and kinetic studies were performed in SLC19A2-overexpressing stable HEK293 cells transiently transfected with an additional 500 ng of SLC19A2 wild-type plasmid.
Prescription drugs associated with MA ([2]) in addition to others belonging to listed drug classes (e.g., proton-pump inhibitors; 63 compounds total) were screened in triplicate at 1 mM to evaluate inhibitory activity against SLC19A2. […] Each plate contained control wells exposed for 10 min (within linear range, Supplemental Figure 1) to [^3H]-thiamine (positive control), [^3H]-thiamine plus 1 mM of amprolium (negative control), and [^3H]-thiamine plus 1 mM of screened drug (3 replicates per drug). Methods have been previously described ([11]). SLC19A2 inhibitors were defined as compounds that decreased SLC19A2-mediated thiamine uptake by 50% or more at 1 mM. For compounds that met this definition, inhibition assays were conducted and IC50 values were calculated by nonlinear fitting using GraphPad Prism 7 (La Jolla, CA) ([11]).
Fig. 3 Common mechanisms of drug-induced megaloblastic anemia and SLC19A2 inhibitor drug screen workflow. A list of drugs associated with inducing megaloblastic anemia through various mechanisms was compiled (a). Each drug was dissolved to a final concentration of 1 mM in buffer containing radiolabeled [^3H] thiamine and exposed to HEK293 cells expressing SLC19A2 wild-type transporter for 10 min.

[1] = drug 1 mM, [3H]-thiamine 25 nM, 10 min, HEK293 cells expressing SLC19A2, relative to uptake without inhibitor

For `CCc1nc(N)nc(N)c1-c1ccc(Cl)cc1` [Pyrimethamine], the remaining activity at 1000 µM [1] was 99.2%.
In the case of Neomycin, the “Average % SLC19A2 thiamine uptake” value [1] is reported as 86.37%.
For `[H]/N=C(\N/C(=N/[H])Nc1ccc(Cl)cc1)NC(C)C` [Proguanil], the remaining activity at 1000 µM [1] was 68.8%.
`Nc1nc2nc[nH]c2c(=S)[nH]1` [Thioguanine] showed a remaining activity at 1000 µM [1] of 93.3%.
With `CO[C@H]1O[C@@H]2O[C@@]3(C)CC[C@H]4[C@H](C)CC[C@@H]([C@H]1C)[C@@]24OO3` [Artemether] the remaining activity at 1000 µM [1] was 67.4%.
`O=C(O)c1cc(/N=N/c2ccc(S(=O)(=O)Nc3ccccn3)cc2)ccc1O` [Sulfasalazine] gave a remaining activity at 1000 µM [1] of 101%.
`CNC(=C[N+](=O)[O-])NCCSCc1ccc(CN(C)C)o1` [Ranitidine] was tested, and the remaining activity at 1000 µM [1] was 111%.
`CN/C(=N/CCSCc1nc[nH]c1C)NC#N` [Cimetidine] showed a remaining activity at 1000 µM [1] of 107%.
Work on `O=C(N[C@H](CO)[C@H](O)c1ccc([N+](=O)[O-])cc1)C(Cl)Cl` [Chloramphenicol] yielded a remaining activity at 1000 µM [1] of 91.5%.
With `Nc1ccc(O)c(C(=O)O)c1` [5-aminosalicylic acid] the remaining activity at 1000 µM [1] was 87.7%.
`S=c1[nH]cnc2nc[nH]c12` [Mercaptopurine] showed a remaining activity at 1000 µM [1] of 90.5%.
Molecule `Nc1nc(N)c2nc(-c3ccccc3)c(N)nc2n1` [Triamterene] has a remaining activity at 1000 µM [1] of 111%.
For `Nc1nc(N)c2nc(CNc3ccc(C(=O)N[C@@H](CCC(=O)O)C(=O)O)cc3)cnc2n1` [Aminopterin], the remaining activity at 1000 µM [1] was 93%.
Molecule `COc1ncnc(NS(=O)(=O)c2ccc(N)cc2)c1OC` [Sulfadoxine] has a remaining activity at 1000 µM [1] of 94.8%.
`Cc1c(OCC(F)(F)F)ccnc1C[S+]([O-])c1nc2ccccc2[nH]1` (stereo not shown) [Lansoprazole] showed a remaining activity at 1000 µM [1] of 45.9% and an inhibition at 1000 µM of no less than 50%.
With `Nc1ccn([C@@H]2O[C@H](CO)[C@@H](O)C2(F)F)c(=O)n1` [Gemcitabine] the remaining activity at 1000 µM [1] was 63.3%.
`CN(C)[C@@H]1C(O)=C(C(N)=O)C(=O)[C@@]2(O)C(O)=C3C(=O)c4c(O)cccc4[C@@](C)(O)[C@H]3C[C@@H]12` [Tetracycline] was tested, and the remaining activity at 1000 µM [1] was 83.6%.
For `NC(N)=Nc1nc(CSCCC(N)=NS(N)(=O)=O)cs1` [Famotidine], the remaining activity at 1000 µM [1] was 74%.
`COc1c(C)c2c(c(O)c1C/C=C(\C)CCC(=O)O)C(=O)OC2` [Mycophenolic acid] showed a remaining activity at 1000 µM [1] of 82.7%.
With `COc1cc(NC(C)CCCN)c2ncccc2c1` (stereo not shown) [Primaquine] the remaining activity at 1000 µM [1] was 76.5%.
For `O=C1CN(/N=C/c2ccc([N+](=O)[O-])o2)C(=O)N1` [Nitrofuranatoin], the “Average % SLC19A2 thiamine uptake” value [1] was 101.075%.
`Cc1onc(-c2ccccc2)c1C(=O)N[C@@H]1C(=O)N2[C@@H]1SC(C)(C)[C@@H]2C(=O)O` [Oxacillin] gave a remaining activity at 1000 µM [1] of 110%.
For `CN(Cc1cnc2nc(N)nc(N)c2n1)c1ccc(C(=O)N[C@@H](CCC(=O)O)C(=O)O)cc1` [Methotrexate], the remaining activity at 1000 µM [1] was 84.9%.
Work on `Cc1cnc(Nc2ccc(OCCN3CCCC3)cc2)nc1Nc1cccc(S(=O)(=O)NC(C)(C)C)c1` [Fedratinib] yielded a remaining activity at 1000 µM [1] of 21% and an inhibition at 1000 µM of no less than 50%.
Work on `C[C@]12CC[C@@H]3c4ccc(O)cc4CC[C@H]3[C@@H]1CC[C@@H]2O` [Estradiol] yielded a remaining activity at 1000 µM [1] of 112%.
In the case of `CNC(C)C1CCC(N)C(OC2C(N)CC(N)C(OC3OCC(C)(O)C(NC)C3O)C2O)O1` (stereo not shown) [Gentamicin], the remaining activity at 1000 µM [1] is reported as 81.9%.
Molecule `CC(=O)NC[C@H]1CN(c2ccc(N3CCOCC3)c(F)c2)C(=O)O1` [Linezolid] has a remaining activity at 1000 µM [1] of 77.7%.
`O=C1NC(=O)C(c2ccccc2)(c2ccccc2)N1` [Phenytoin] gave a remaining activity at 1000 µM [1] of 75%.
With `COc1cc2c(c(OC)c1OC)-c1ccc(OC)c(=O)cc1[C@@H](NC(C)=O)CC2` [Colchicine] the remaining activity at 1000 µM was 95.9%.
With `C=C[C@H]1C[N@@]2CC[C@H]1C[C@H]2[C@H](O)c1ccnc2ccc(OC)cc12` [Quinine] the remaining activity at 1000 µM [1] was 69.7%.
Molecule `C/C(O)=C(\C#N)C(=O)Nc1ccc(C(F)(F)F)cc1` [Teriflunomide] has a remaining activity at 1000 µM [1] of 95.7%.
With `CO[C@H]1/C=C/O[C@@]2(C)Oc3c(C)c(O)c4c(O)c(c(/C=N/N5CCN(C)CC5)c(O)c4c3C2=O)NC(=O)/C(C)=C\C=C\[C@H](C)[C@H](O)[C@@H](C)[C@@H](O)[C@@H](C)[C@H](OC(C)=O)[C@@H]1C` [Rifampicin] the remaining activity at 1000 µM [1] was 56.1%.
Molecule `C=C[C@H]1C[N@@]2CC[C@H]1C[C@@H]2[C@@H](O)c1ccnc2ccc(OC)cc12` [Quinidine] has a remaining activity at 1000 µM [1] of 53%.
For `Cn1cnc([N+](=O)[O-])c1Sc1ncnc2nc[nH]c12` [Azathioprine], the remaining activity at 1000 µM [1] was 87.2%.
`Cc1nc2ccc(CN(C)c3ccc(C(=O)N[C@@H](CCC(=O)O)C(=O)O)s3)cc2c(=O)[nH]1` [Raltitrexed] was tested, and the remaining activity at 1000 µM [1] was 88.2%.
For `CN(C)C(=N)N=C(N)N` [Metformin], the remaining activity at 1000 µM [1] was 74.2%.
Molecule `[H]/N=C(/N)N/C(=N/[H])NCCc1ccccc1` [Phenformin] has a remaining activity at 1000 µM [1] of 82.3%.
For `Oc1ncnc2[nH]ncc12` [Allopurinol], the remaining activity at 1000 µM [1] was 96.9%.
For `NNC(=O)c1ccncc1` [Isoniazid], the remaining activity at 1000 µM [1] was 108%.
With `NC(=O)NO` [Hydroxyurea] the “Average % SLC19A2 thiamine uptake” value [1] was 105.5%.
`CC1(C)S[C@@H]2[C@H](NC(=O)C(C(=O)O)c3ccccc3)C(=O)N2[C@H]1C(=O)O` (stereo partly shown) [Carbenicillin] showed a remaining activity at 1000 µM [1] of 90.8%.
`NCC[C@H](O)C(=O)N[C@@H]1C[C@H](N)[C@@H](O[C@H]2O[C@H](CN)[C@@H](O)[C@H](O)[C@H]2O)[C@H](O)[C@H]1O[C@H]1O[C@H](CO)[C@@H](O)[C@H](N)[C@H]1O` [Amikacin] was tested, and the remaining activity at 1000 µM [1] was 98.7%.
With `CC1(C)S[C@@H]2[C@H](NC(=O)[C@H](N)c3ccc(O)cc3)C(=O)N2[C@H]1C(=O)O` [Amoxicillin] the remaining activity at 1000 µM [1] was 95.9%.
Molecule `CC1(C)S[C@@H]2[C@H](NC(=O)[C@H](N)c3ccccc3)C(=O)N2[C@H]1C(=O)O` [Ampicillin] has a remaining activity at 1000 µM of 102%.
In the case of `COc1ccc2nc([S@@+]([O-])Cc3ncc(C)c(OC)c3C)[nH]c2c1` [Esomeprazole], the remaining activity at 1000 µM [1] is reported as 57.7%.
`C[C@H]1c2cccc(O)c2C(=O)C2=C(O)[C@]3(O)C(=O)C(C(N)=O)=C(O)[C@@H](N(C)C)[C@@H]3[C@@H](O)[C@@H]21` [Doxycycline] showed a remaining activity at 1000 µM [1] of 67.8%.
`Cc1oncc1C(=O)Nc1ccc(C(F)(F)F)cc1` [Leflunomide] gave a remaining activity at 1000 µM [1] of 57.7%.
Molecule `COCCCOc1ccnc(C[S+]([O-])c2nc3ccccc3[nH]2)c1C` (stereo not shown) [Rabeprazole] has a remaining activity at 1000 µM [1] of 75.3%.
Work on `O=c1[nH]cc(F)c(=O)[nH]1` [5-fluorouracil] yielded a remaining activity at 1000 µM [1] of 93.8%.
In the case of `Nc1nc(F)nc2c1ncn2[C@@H]1O[C@H](CO)[C@@H](O)[C@@H]1O` [Fludarabine], the remaining activity at 1000 µM [1] is reported as 71.1%.
`CCCCN(CCCC)CC(O)c1cc(Cl)cc2c1-c1ccc(Cl)cc1/C2=C/c1ccc(Cl)cc1` (stereo not shown) [Lumafantrine] was tested, and the “Average % SLC19A2 thiamine uptake” value [1] was 87.72%.
Molecule `CC[C@H]1OC(=O)[C@H](C)[C@@H](O[C@H]2C[C@@](C)(OC)[C@@H](O)[C@H](C)O2)[C@H](C)[C@@H](O[C@@H]2O[C@H](C)C[C@H](N(C)C)[C@H]2O)[C@](C)(OC)C[C@@H](C)C(=O)[C@H](C)[C@@H](O)[C@]1(C)O` [Clarithromycin] has a remaining activity at 1000 µM [1] of 58.2%.
Work on `CC[C@H]1OC(=O)[C@H](C)[C@@H](O[C@H]2C[C@@](C)(OC)[C@@H](O)[C@H](C)O2)[C@H](C)[C@@H](O[C@@H]2O[C@H](C)C[C@H](N(C)C)[C@H]2O)[C@](C)(O)C[C@@H](C)CN(C)[C@H](C)[C@@H](O)[C@]1(C)O` [Azithromycin] yielded a remaining activity at 1000 µM [1] of 81.9%.
